Results from PubChem BioAssay AID200 (DTP/NCI, 2004).
Where “and” joins values, the source holds several entries; their conditions need not be identical. Identical values can stand only once. Toxic doses and inconclusive results are not listed.

Tested on: B6C3F1 mice, B16 melanoma ip, median survival T/C
Assay: NCI In Vivo Anticancer Drug Screen. Data for tumor model B16 Melanoma (intraperitoneal) in B6C3F1 mice
Settings: endpoint: median survival time, higher = longer survival
How it was run: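 Values are T/C ratios: the measurement in treated animals divided by that in vehicle-treated controls, using survival or tumor size in mice carrying transplantable tumors.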

[1] = dose: 1.0 mg/kg/injection, schedule: Q01DX009 (ip), vehicle: saline + alcohol

In the case of `O=CCC(O)C(O)C(O)CO` (configuration not stated), the T/C (dose: 300.0 mg/kg/injection, schedule: Q01DX009 (ip), vehicle: saline) is reported as 112 % of control, the T/C (dose: 600.0 mg/kg/injection, schedule: Q01DX009 (ip), vehicle: saline) is reported as 103 % of control and the T/C (dose: 1200.0 mg/kg/injection, schedule: Q01DX009 (ip), vehicle: saline) is reported as 104 % of control. For the same compound, the T/C (dose: 1800.0 mg/kg/injection, schedule: Q01DX009 (ip), vehicle: saline) was 108 % of control and the T/C (dose: 2400.0 mg/kg/injection, schedule: Q01DX009 (ip), vehicle: saline) was 101 % of control.
With `CCN(CC)c1ccc2cc(-c3nc4ccccc4n3C)c(=O)oc2c1` the T/C (dose: 6.25 mg/kg/injection, schedule: Q01DX009 (ip), vehicle: Klucel (hydroxypropylcellulose) (HPC)) was 94 % of control and 101 % of control, the T/C (dose: 12.5 mg/kg/injection, schedule: Q01DX009 (ip), vehicle: Klucel (hydroxypropylcellulose) (HPC)) was 102 % of control and 106 % of control and the T/C (dose: 25.0 mg/kg/injection, schedule: Q01DX009 (ip), vehicle: Klucel (hydroxypropylcellulose) (HPC)) was 108 % of control and 111 % of control.
`COC1C(OC(=O)/C=C/C=C/C=C/C=C/C(=O)O)CCC2(CO2)C1C1(C)OC1CC=C(C)C` (configuration not stated) was tested, and the T/C (dose: 25.0 mg/kg/injection, schedule: Q01DX009 (ip), vehicle: saline) was 117 % of control, the T/C (dose: 50.0 mg/kg/injection, schedule: Q01DX009 (ip), vehicle: saline) was 113 % of control and the T/C (dose: 100.0 mg/kg/injection, schedule: Q01DX009 (ip), vehicle: saline) was 119 % of control. For the same compound, the T/C (dose: 200.0 mg/kg/injection, schedule: Q01DX009 (ip), vehicle: saline) was 113 % of control.
In the case of `CC(=O)OC1C(O)C(C)OC(OC2C(OC(=O)C3CCC4C(C3)OC3(CC(OC(=O)/C=C/c5ccccc5)C(C)CO3)C43CO3)OC(C)C(O)C2OC(C)=O)C1O` (configuration not stated), the T/C (dose: 0.38 mg/kg/injection, schedule: Q03HX024 (ip), vehicle: other) is reported as 111 % of control, the T/C (dose: 0.75 mg/kg/injection, schedule: Q03HX024 (ip), vehicle: other) is reported as 120 % of control and the T/C (dose: 0.9 mg/kg/injection, schedule: Q01DX005 (iv), vehicle: other) is reported as 111 % of control. For the same compound, the T/C (dose: 1.0 mg/kg/injection, schedule: Q01DX009 (ip), vehicle: distilled water + alcohol) was 122 % of control, the T/C (dose: 1.0 mg/kg/injection, schedule: Q01DX009 (ip), vehicle: other) was 120 % of control and 122 % of control and the T/C (dose: 1.0 mg/kg/injection, schedule: Q01DX009 (ip), vehicle: saline + Tween-80 + alcohol) was 116 % of control. The T/C [1] was 110 % of control and 115 % of control, the T/C (dose: 1.13 mg/kg/injection, schedule: Q03HX008 (ip), vehicle: other) was 123 % of control and the T/C (dose: 1.8 mg/kg/injection, schedule: Q01DX005 (iv), vehicle: other) was 103 % of control. For the same compound, the T/C (dose: 2.0 mg/kg/injection, schedule: Q01DX009 (ip), vehicle: distilled water + alcohol) was 158 % of control, the T/C (dose: 2.0 mg/kg/injection, schedule: Q01DX009 (ip), vehicle: other) was 152 % of control and the T/C (dose: 2.0 mg/kg/injection, schedule: Q01DX009 (ip), vehicle: saline + Tween-80 + alcohol) was 157 % of control. The T/C (dose: 2.25 mg/kg/injection, schedule: Q01DX001 (iv), vehicle: other) was 114 % of control, the T/C (dose: 2.25 mg/kg/injection, schedule: Q03HX008 (ip), vehicle: other) was 119 % of control and the T/C (dose: 3.0 mg/kg/injection, schedule: Q04DX003 (ip), vehicle: other) was 122 % of control. The T/C (dose: 3.6 mg/kg/injection, schedule: Q01DX005 (iv), vehicle: other) was 107 % of control, the T/C (dose: 4.0 mg/kg/injection, schedule: Q01DX009 (ip), vehicle: distilled water + alcohol) was 184 % of control and the T/C (dose: 4.0 mg/kg/injection, schedule: Q01DX009 (ip), vehicle: other) was 175 % of control. For the same compound, the T/C (dose: 4.0 mg/kg/injection, schedule: Q01DX009 (ip), vehicle: saline + Tween-80 + alcohol) was 185 % of control, the T/C (dose: 4.0 mg/kg/injection, schedule: Q01DX009 (ip), vehicle: saline) was 163 % of control and the T/C (dose: 4.0 mg/kg/injection, schedule: Q01DX009 (oral), vehicle: other) was 102 % of control. The T/C (dose: 4.0 mg/kg/injection, schedule: Q01DX009 (sc), vehicle: other) was 108 % of control, the T/C (dose: 4.5 mg/kg/injection, schedule: Q01DX001 (ip), vehicle: other) was 117 % of control and the T/C (dose: 4.5 mg/kg/injection, schedule: Q01DX001 (iv), vehicle: other) was 105 % of control. For the same compound, the T/C (dose: 7.2 mg/kg/injection, schedule: Q01DX005 (iv), vehicle: other) was 119 % of control, the T/C (dose: 8.0 mg/kg/injection, schedule: Q01DX009 (ip), vehicle: distilled water + alcohol) was 176 % of control and the T/C (dose: 8.0 mg/kg/injection, schedule: Q01DX009 (ip), vehicle: other) was 158 % of control and 174 % of control. The T/C (dose: 8.0 mg/kg/injection, schedule: Q01DX009 (ip), vehicle: saline + Tween-80 + alcohol) was 182 % of control, the T/C (dose: 8.0 mg/kg/injection, schedule: Q01DX009 (ip), vehicle: saline) was 161 % of control and the T/C (dose: 8.0 mg/kg/injection, schedule: Q01DX009 (oral), vehicle: other) was 104 % of control. The T/C (dose: 8.0 mg/kg/injection, schedule: Q01DX009 (sc), vehicle: other) was 106 % of control, the T/C (dose: 8.0 mg/kg/injection, schedule: Q02DX005 (ip), vehicle: saline + Tween-80 + alcohol) was 158 % of control and the T/C (dose: 9.0 mg/kg/injection, schedule: Q01DX001 (ip), vehicle: other) was 114 % of control. For the same compound, the T/C (dose: 9.0 mg/kg/injection, schedule: Q01DX001 (iv), vehicle: other) was 111 % of control, the T/C (dose: 12.0 mg/kg/injection, schedule: Q04DX003 (ip), vehicle: saline + alcohol) was 124 % of control and the T/C (dose: 14.4 mg/kg/injection, schedule: Q01DX005 (ip), vehicle: other) was 160 % of control. The T/C (dose: 14.4 mg/kg/injection, schedule: Q01DX005 (iv), vehicle: other) was 113 % of control, the T/C (dose: 16.0 mg/kg/injection, schedule: Q01DX009 (ip), vehicle: distilled water + alcohol) was 150 % of control and the T/C (dose: 16.0 mg/kg/injection, schedule: Q01DX009 (ip), vehicle: other) was 177 % of control and 188 % of control. For the same compound, the T/C (dose: 16.0 mg/kg/injection, schedule: Q01DX009 (ip), vehicle: saline + Tween-80 + alcohol) was 179 % of control, the T/C (dose: 16.0 mg/kg/injection, schedule: Q01DX009 (oral), vehicle: other) was 102 % of control and the T/C (dose: 16.0 mg/kg/injection, schedule: Q01DX009 (sc), vehicle: other) was 114 % of control. The T/C (dose: 16.0 mg/kg/injection, schedule: Q02DX005 (ip), vehicle: saline + Tween-80 + alcohol) was 166 % of control, the T/C (dose: 16.0 mg/kg/injection, schedule: Q02DX005 (ip), vehicle: saline + alcohol) was 155 % of control and the T/C (dose: 18.0 mg/kg/injection, schedule: Q01DX001 (ip), vehicle: other) was 120 % of control. For the same compound, the T/C (dose: 18.0 mg/kg/injection, schedule: Q01DX001 (iv), vehicle: other) was 117 % of control, the T/C (dose: 32.0 mg/kg/injection, schedule: Q01DX009 (oral), vehicle: other) was 101 % of control and the T/C (dose: 32.0 mg/kg/injection, schedule: Q01DX009 (sc), vehicle: other) was 112 % of control. For the same compound, the T/C (dose: 32.0 mg/kg/injection, schedule: Q02DX005 (ip), vehicle: saline + alcohol) was 154 % of control, the T/C (dose: 36.0 mg/kg/injection, schedule: Q01DX001 (ip), vehicle: other) was 119 % of control and the T/C (dose: 96.0 mg/kg/injection, schedule: Q04DX003 (ip), vehicle: saline + Tween-80 + alcohol) was 94 % of control.
For `COC(=O)C(F)C(Br)C(=O)OC` (configuration not stated), the T/C (dose: 3.13 mg/kg/injection, schedule: Q01DX009 (ip), vehicle: saline with Tween-80) was 98 % of control, the T/C (dose: 6.25 mg/kg/injection, schedule: Q01DX009 (ip), vehicle: saline with Tween-80) was 91 % of control and the T/C (dose: 12.5 mg/kg/injection, schedule: Q01DX009 (ip), vehicle: saline with Tween-80) was 93 % of control. For the same compound, the T/C (dose: 25.0 mg/kg/injection, schedule: Q01DX009 (ip), vehicle: saline with Tween-80) was 93 % of control and the T/C (dose: 50.0 mg/kg/injection, schedule: Q01DX009 (ip), vehicle: saline with Tween-80) was 90 % of control.
`O=c1[nH]cccc1O` was tested, and the T/C (dose: 16.0 mg/kg/injection, schedule: Q01DX009 (ip), vehicle: saline with Tween-80) was 101 % of control, the T/C (dose: 32.0 mg/kg/injection, schedule: Q01DX009 (ip), vehicle: saline with Tween-80) was 92 % of control and the T/C (dose: 64.0 mg/kg/injection, schedule: Q01DX009 (ip), vehicle: saline with Tween-80) was 93 % of control. For the same compound, the T/C (dose: 128.0 mg/kg/injection, schedule: Q01DX009 (ip), vehicle: saline with Tween-80) was 105 % of control and the T/C (dose: 256.0 mg/kg/injection, schedule: Q01DX009 (ip), vehicle: saline with Tween-80) was 99 % of control.
In the case of `CCC(C)C(O)C(C)C(=O)C(C)/C=C(\C)CC(C)C1OC(=O)C1C` (configuration not stated), the T/C (dose: 0.25 mg/kg/injection, schedule: Q01DX009 (ip), vehicle: saline + alcohol) is reported as 96 % of control, the T/C (dose: 0.5 mg/kg/injection, schedule: Q01DX009 (ip), vehicle: saline + alcohol) is reported as 98 % of control and 104 % of control and the T/C [1] is reported as 99 % of control and 101 % of control. The T/C (dose: 2.0 mg/kg/injection, schedule: Q01DX009 (ip), vehicle: saline + alcohol) was 96 % of control and 98 % of control.
